Measurements published in patent publication US10562842B2, “Use of polyaminoisoprenyl derivatives in antibiotic or antiseptic treatment” (UNIVERSITE D'AIX-MARSEILLE, priority 2011, dated 2020).
In brackets after ≈: the same amount, converted by molar mass.

How the values were obtained:
[1] = tested on: Enterobacter aerogenes MDR Ea289; assay: MIC of antibiotics ± test compound (MIC ratio), micro-broth dilution; type: cell-based
Protocol: The process consists of treating the MDR bacteria with the compounds of the invention in the presence of antibiotics.
(§1) Susceptibilities to antibiotics and compounds were determined in microplates by broth dilution method, as previously described. Minimal Inhibitory Concentrations (MICs) were determined with an inoculum of 10^6 CFU in 200 μL of MH broth containing two-fold serial dilutions of each drug. […] All MIC determinations were repeated at least three times in independent experiments.
(§2) The MICs of chloramphenicol±test compounds (MIC/4) were determined by the micro-broth dilution method (9). All MIC determinations were repeated at least three times in independent experiments. The MIC ratio corresponds to the ratio of the MIC of an antibiotic alone to the MIC of the same antibiotic in the presence of the tested compound (at MIC/4).
The compounds listed in Table 2 were tested for their ability to decrease the chloramphenicol MIC of Ea289, an Enterobacter aerogenes MDR strain (1). Each compound was first tested at MIC/4. […] All MIC determinations were repeated at least three times in independent experiments.
(§3) For reminder, the MIC ratio corresponds to the ratio of the MIC of the assessed antibiotic alone to the MIC of the same antibiotic in the presence of the tested compound (at MIC/4).

Ea289ΔacrB (Ea294) = assay: as above; type: cell-based, Enterobacter aerogenes; conditions: compound at MIC/4
Protocol: (§4) The Enterobacter aerogenes Ea289 strain is a Kans derivative of the MDR clinical isolate Ea27, the acrB mutant, EaEP294, was constructed from Ea289. Multidrug-resistant Salmonella enterica serovar Typhimurium DT104 strains (BN10055) was isolated from cattle in France, the isogenic acrB derivative mutant, BN10055ΔacrB, was constructed from BN10055. Strains were maintained at −80° C. in 25% (v/v) glycerol for cryoprotection. Bacteria were routinely grown in Mueller-Hinton (MH) broth at 37° C.
as §1
(§5) […] All MIC determinations were repeated at least three times in independent experiments. The MIC ratio corresponds to the ratio of the MIC of an antibiotic alone to the MIC of the same antibiotic in the presence of the tested compound (at MIC/4).
as §3

BN10055ΔacrB [2] = assay: as above; type: cell-based, Salmonella enterica serovar Typhimurium; conditions: compound at MIC/4
Protocol: as §4, §1, §5, §3

[3] = tested on: Salmonella Thyphimurium MDR BN10055; assay: as above; type: cell-based, Salmonella enterica serovar Typhimurium; conditions: compound at MIC/4; for MIC ratio (*) on BN10055 Chl: chloramphenicol; for MIC ratio (*) on BN10055 Nal: nalidixic acid
Protocol: as §4, §1, §5, §3

ATCC 13048 [4] = assay: as above; type: cell-based, Enterobacter aerogenes; conditions: compound at MIC/4; Example 4
Protocol: as §1, §2, §3

CM64 = assay: as above; type: cell-based, Enterobacter aerogenes; conditions: compound at MIC/4; Example 4
Protocol: as §1, §2, §3

Ea27 [5] = assay: as above; type: cell-based, Enterobacter aerogenes; conditions: compound at MIC/4; Example 4
Protocol: as §1, §2, §3

PA124 [6] = assay: as above; type: cell-based, Pseudomonas aeruginosa; conditions: compound at MIC/4
Protocol: as §1, §2, §3

PAO1 [7] = assay: as above; type: cell-based, Pseudomonas aeruginosa; conditions: compound at MIC/4
Protocol: as §1, §2, §3

AB1 = assay: MIC by broth dilution (intrinsic MIC); type: cell-based; conditions: Acinetobacter baumannii
Protocol: as §1

AG100 = assay: MIC by broth dilution (intrinsic MIC); type: cell-based; conditions: Escherichia coli AG100
Protocol: as §1

ATCC 13048 [8] = assay: MIC by broth dilution (intrinsic MIC); type: cell-based; conditions: Klebsiella aerogenes, ATCC13048; Enterobacter ATCC 13048
Protocol: as §1

ATCC 19606 = assay: MIC by broth dilution (intrinsic MIC); type: cell-based; conditions: Acinetobacter baumannii, ATCC19606; Acinetobacter ATCC 19606
Protocol: as §1

Ea27 [9] = assay: MIC by broth dilution (intrinsic MIC); type: cell-based; conditions: Klebsiella aerogenes; Enterobacter Ea27
Protocol: as §1

PA124 [10] = assay: MIC by broth dilution (intrinsic MIC); type: cell-based; conditions: Pseudomonas aeruginosa
Protocol: as §1

PAO1 [11] = assay: MIC by broth dilution (intrinsic MIC); type: cell-based; conditions: Pseudomonas aeruginosa
Protocol: as §1

BN10055ΔacrB [12] = assay: MIC by broth dilution (intrinsic MIC); type: cell-based, Salmonella enterica; conditions: Salmonella BN10055ΔacrB
Protocol: as §1

[13] = tested on: strain IV2571223 - Escherichia coli pig (sensible); assay: MIC of antibiotics in the presence and absence of test compound, veterinary strains; type: cell-based; design: MIC for strain IV2571223, Doxycycline in the presence of test compound: unit not given beside the values; conditions: compound at the Concentration (μM) (2-50)
Protocol: (§6) For each strain and each antibiotic, the MICs were determined in the presence and in the absence of one test compound.

[14] = tested on: strain IV2570060 - Escherichia coli cattle (sensible); assay: as above; type: cell-based; conditions: compound at the Concentration (μM) (4-50)
Protocol: as §6

[15] = tested on: strain IV2570533 - Escherichia coli cattle (resistant); assay: as above; type: cell-based; conditions: compound at the Concentration (μM) (0.896-12.6)
Protocol: as §6

[16] = Tolerance in mice, intraperitoneal route; type: in vivo; conditions: day 2, Compound 5 8.8 mg/kg, 8 1.46 mg/kg, 11 0.45 mg/kg, 14 0.35 mg/kg, 12 6.3 mg/kg
Protocol: Mice were administered with increasing doses of test compounds by intraperitoneal route.
The mice were sacrificed on day 2 after the injection of the test compound and autopsied. No morphological anomaly was observed. Liver, lung, kidney and intestine of each mouse were fixed and analysed.

## CC(C)=CCCC(C)=CCNCCCN(CCCN)CCCN (racemic) [Compound 11, {3-[Bis-(3-amino-propyl)-amino]-propyl}-(3,7-dimethyl-octa-2,6-dienyl)-amine]
[1]; chloramphenicol
  Effective concentration (mM) for a MIC ratio of chloramphenicol ≥ 8 on Ea289: 0.0078 mM
[1]; chloramphenicol MIC ratio of 8 on Ea289
  efficient concentration, times lower than the control PAβN: about 4.9 times
[1]; chloramphenicol on Ea289
  activity, effective concentration compared with PAβN to reach a MIC ratio of 8: strong activity
[1]; chloramphenicol, compound at MIC/4, Set 1
  MIC ratio (*) on Ea289 Chl: 16
[1]; chloramphenicol, compound at MIC/4, Set 2
  MIC ratio (*) on Ea289 Chl: 8
[1]; compound at MIC/4, Example 4
  MIC ratio Chloramphenicol E. aerogenes Ea289: 8
  MIC ratio Doxycycline E. aerogenes Ea289: 32
  MIC ratio Nalidixic acid E. aerogenes Ea289: 8
[1]; erythromycin, compound at MIC/4, Set 1
  MIC ratio(*) on Ea289 Ery: 32
[1]; nalidixic acid, compound at MIC/4, Set 1
  MIC ratio (*) on Ea289 Nal: 8
Ea289ΔacrB (Ea294); chloramphenicol, Set 1
  MIC ratio(*) on Ea289ΔacrB Chl: 16
Ea289ΔacrB (Ea294); Example 4
  MIC ratio Chloramphenicol E. aerogenes Ea294: 16
  MIC ratio Doxycycline E. aerogenes Ea294: 4
  MIC ratio Nalidixic acid E. aerogenes Ea294: 8
Ea289ΔacrB (Ea294); erythromycin, Set 1
  MIC ratio(*) on Ea289ΔacrB Ery: 16
Ea289ΔacrB (Ea294); nalidixic acid, Set 1
  MIC ratio(*) on Ea289ΔacrB Nal: 8
BN10055ΔacrB [2]; chloramphenicol, Set 1
  MIC ratio(*) on BN10055ΔacrB Chl: 2
BN10055ΔacrB [2]; Example 4
  MIC ratio Chloramphenicol S. enterica BN1005ΔacrB: 2
  MIC ratio Doxycycline S. enterica BN1005ΔacrB: 2
  MIC ratio Nalidixic acid S. enterica BN1005ΔacrB: 2
BN10055ΔacrB [2]; erythromycin, Set 1
  MIC ratio(*) on BN10055ΔacrB Ery: 8
BN10055ΔacrB [2]; nalidixic acid, Set 1
  MIC ratio(*) on BN10055ΔacrB Nal: 2
[3]; Set 1
  MIC ratio (*) on BN10055 Chl: 16
  MIC ratio (*) on BN10055 Nal: 128
[3]; Set 2
  MIC ratio (*) on BN10055 Chl: 16
  MIC ratio (*) on BN10055 Nal: 128
[3]; Example 4
  MIC ratio Chloramphenicol S. enterica BN10055: 16
  MIC ratio Doxycycline S. enterica BN10055: 16
  MIC ratio Nalidixic acid S. enterica BN10055: 128
[3]; doxycycline, Set 2
  MIC ratio (*) on BN10055 Dox: 16
[3]; erythromycin, Set 1
  MIC ratio(*) on BN10055 Ery: 8
ATCC 13048 [4]
  MIC ratio Chloramphenicol E. aerogenes ATCC13048: >32
  MIC ratio Doxycycline E. aerogenes ATCC13048: 64
  MIC ratio Oxacillin E. aerogenes ATCC13048: >8
CM64
  MIC ratio Chloramphenicol E. aerogenes CM64: 16
  MIC ratio Oxacillin E. aerogenes CM64: >8
Ea27 [5]
  MIC ratio Chloramphenicol E. aerogenes Ea27: >4
  MIC ratio Doxycycline E. aerogenes Ea27: 32
  MIC ratio Oxacillin E. aerogenes Ea27: 1
PA124 [6]
  MIC ratio Cefepime Pseudomonas aeruginosa PA124: 1
  MIC ratio Chloramphénicol Pseudomonas aeruginosa PA124: 128
  MIC ratio Doxycycline Pseudomonas aeruginosa PA124: >32
  MIC ratio Tetracycline Pseudomonas aeruginosa PA124: 8
PAO1 [7]
  MIC ratio Cefepime Pseudomonas aeruginosa PAO1: 1
  MIC ratio Doxycycline Pseudomonas aeruginosa PAO1: >16
AB1
  MIC: 31 µM (≈ 10.1 µg/mL)
AG100
  MIC: 31 µM (≈ 10.1 µg/mL)
ATCC 13048 [8]
  MIC: 31 µM (≈ 10.1 µg/mL)
ATCC 19606
  MIC: 62 µM (≈ 20.1 µg/mL)
Ea27 [9]
  MIC: 31 µM (≈ 10.1 µg/mL)
PA124 [10]
  MIC: 62 µM (≈ 20.1 µg/mL)
PAO1 [11]
  MIC: 62 µM (≈ 20.1 µg/mL)
BN10055ΔacrB [12]
  intrinsic MIC, BN10055ΔacrB: 15 µM
[13]
  MIC for strain IV2571223, Doxycycline in the presence of test compound: 0.03125
  MIC for strain IV2571223, Tylosine in the presence of test compound: 16
[14]
  MIC for strain IV2570060, Doxycycline in the presence of test compound: 0.0625
  MIC for strain IV2570060, Tylosine in the presence of test compound: 4
[15]
  MIC for strain IV2570533, Doxycycline in the presence of test compound: 1
  MIC for strain IV2570533, Tylosine in the presence of test compound: 4
[16]
  tissue anomaly (liver, lung, kidney, intestine): no significant tissue anomaly
